Results on two substances are retold here after patent US7456154B2 (priority 2001, dated 2008).

Values joined by “and” are separate entries in the source; they are usually repeats but may differ in a detail not shown here. Equal entries are not always repeated.

In data set [1] the test system is EAMG rats. The experiment in a line: Treadmill running time and clinical status of EAMG rats. The class given is in vivo, rat. Particulars: for Treadmill Performance Time: individual EAMG rat; for Clinical score: individual rat.
The test system of data set [2] is AChE-R. Description: Immunohistochemical staining of AChE-R in rat muscle. In kind it is in vivo. Particulars: healthy and EAMG rats, 24 h after single i.v. injection of 250 μg/Kg. Here is the method: Immunocytochemistry: Muscle sections were deparaffinized with xylene and were re-hydrated in graded ethanol solutions (100%, 90%, 70%) and PBS. Heat-induced antigen retrieval was performed by microwave treatment (850 W for rapid boil following 10 min in reduced intensity) in 500 ml of 0.01M citrate buffer pH 6.0. Slides were cooled to room temperature and rinsed in double distilled water. Non-specific binding was blocked by 4% nominal donkey serum in PBS with 0.3% Triton X-100 and 0.05% Tween 20 (1 hr at room temperature). Biotinylated primary antibody was diluted (1:100 and 1:30 for rabbit anti-AChE-R [Sternfeld et al. (2000) id ibid] and goat anti-nAChR, respectively) in the same buffer and slides were incubated 1 hr at room temperature following overnight incubation at 4° C. Sections were rinsed and incubated with alkaline phosphatase-conjugated secondary antibody, diluted in the same blocking buffer 1 hr at room temperature and then overnight at 4° C. Detection was with the alkaline phosphatase substrate Fast Red (Roche Diagnostics, Mannheim, Germany). Slides were simultaneously transferred to a stop solution (25 mM EDTA, 0.05% Triton X-100, 1 mM levamisole in PBS, pH 7.2), rinsed in PBS and cover-slipped with Immunomount (Shandon). […]

In data set [3] the test system is AChE-R mRNA. Description: AChE-R mRNA in mandibular lymph nodes of Crl:CD rats. In kind it is in vivo, rat. Particulars: 0.50 μg/g/day, 7 days; rEN101 oral or i.v., hEN101 i.v.; vs saline. Here is the method:
A study of the potential efficacy as well as toxicity of hEN101 was conducted on 4 week-old Crl:CD rats. To groups of 12 animals (6 males, 6 females) were administered 0.0 (saline only), 0.50 or 2.50 μg/g/day of hEN101 by oral gavage (o.g.), 0.50 μg/g/day of rEN101 by o.g., or 0.50 μg/g/day of rEN101 or hEN101 by i.v. injection. Additionally, there was a control group that was not injected. For 7 days the animals were checked for gross signs of toxicity: mortality, body weight, food consumption, ophtalmology, hematology (peripheral blood), and blood chemistry. At 7 days they were sacrificed and examined post mortem for macroscopic pathology and organ weight. Fixed sections of brain (cerebellum, cerebrum, midbrain, medulla), heart (auricular and ventricular regions), kidneys (cortex, medulla, papilla regions), liver (all main lobes), lungs (two major lobes, including bronchi), lymph nodes (mandibular and mesenteric), spinal cord (transverse and longitudinal sections at cervical, lumbar and thoracic levels), caecum, colon, duodenum, ileum, jejunum, esophagus, rectum, spleen and stomach (keratinized, glandular and antrum) were stained with hematoxylin/eosin to reveal necrosis or cell death.
Mandibular lymph nodes were examined for the effect of EN101 on AChE-R mRNA. […]

Data set [4] relates to AChE-S. The experiment in a line: AChE-S expression in mandibular lymph nodes of Crl:CD rats. The class given is in vivo, rat. To be noted: 0.50 μg/g/day, 7 days; rEN101 oral or i.v., hEN101 i.v.
Data set [5] relates to Cynomolgus monkeys. The experiment in a line: 7-day toxicology study of hEN101 in Cynomolgus monkeys. The class given is in vivo, Cynomolgus monkey. Here is the method: This experiment was conducted with six (3 males and 3 females) purpose-bred 15 month-old (young adult) Cynomolgus monkeys, divided in three groups (1, 2 and 3) of one male and one female each. Groups 1 and 2 received hEN101 daily by o.g. for a period of 7 days, at a concentration of 0.15 and 0.50 μg/g/day, respectively. Group 3 received daily i.v. injections of hEN101 for a period of 7 days at a dosage of 0.50 μg/g/day.
Over a 12 hour period, plasma samples were obtained during the second treatment day to investigate the toxicokinetic profile at each dosage. The toxicology study consisted of checking the animals during the 7 days of treatment for gross signs of toxicity by the following parameters: mortality, body weight, food consumption, electrocardiography, blood pressure, hematology (peripheral blood), and blood chemistry. At 7 days the monkeys were sacrificed and examined post-mortem for macroscopic pathology and organ weight. Fixed sections of brain (cerebellum, cerebrum, midbrain, medulla), caecum, colon, duodenum, heart (auricular and ventriclar regions), ileum, jejunum, kidneys (cortex, medulla, papilla regions), liver (two main lobes), lungs (two major lobes, including bronchi), lymph nodes (mandibular and mesenteric), esophagus, rectum, sciatic nerve, skeletal muscle (thigh), spinal cord (transverse and longitudinal sections at cervical level), spleen and stomach (body and antrum) were stained with hematoxylin/eosin to reveal necrosis or cell death.

For the substance “5′-CTGCGATATTTTCTTGTACC-3′ (chemistry not given here) [rEN101]”, the “Treadmill running time after treatment” value is 488 ± 58 s in data set [1] (EAMG disease grade 2, 250 μg/Kg i.v., 24 h); 500 ± 193 s in data set [1] (EAMG disease grade 3, 250 μg/Kg i.v., 24 h); 212 ± 59 s in data set [1] (EAMG disease grade 4, 250 μg/Kg i.v., 24 h). Besides, the “Treadmill running time before treatment” value was found to be 247 ± 35 s in data set [1] (EAMG disease grade 2, 25 m/min); 179 ± 21 s in data set [1] (EAMG disease grade 3, 25 m/min); 32 ± 6 s in data set [1] (EAMG disease grade 4, 25 m/min). For the same substance, the “AChE-R immunohistochemical staining in muscle” value in data set [2] is “significantly reduced”. In data set [3], the “AChE-R mRNA levels in mandibular lymph nodes” value was “inconsistent in depressing AChE-R mRNA levels”. In addition, in data set [4], the “Expression of AChE-S synaptic variant in mandibular lymph nodes” value was “did not affect the expression”.
Consider 5′-CTGCCACGTTCTCCTGCACC-3′ [hEN101], for which, in data set [1] (0.25 μg/g oral single dose), the “Effect on muscle stamina in EAMG rats” value is reported as “promoted muscle stamina”. Besides, the “Treadmill Performance Time” value in data set [1] (5 h, 0.25 μg/g oral single dose) was 300 s and 120 s and 150 s and 70 s; in data set [1] (24 h, 0.25 μg/g oral single dose), 345 s and 170 s and 380 s and 360 s and 30 s; in data set [1] (48 h, 0.25 μg/g oral single dose), 85 s and 290 s; in data set [1] (before (basal), 0.25 μg/g oral single dose) it was 210 s and 80 s and 180 s and 30 s and 110 s and 0 s. The Clinical score entry in data set [1] (24 h, scale 0 to 5 (death), 0.25 μg/g oral single dose) is “(1) (3×) and (2) and |||| (3) and (3)”; in data set [1] (48 h, scale 0 to 5 (death), 0.25 μg/g oral single dose) it was 2.5 and 2 and || (5); in data set [1] (before (basal), scale 0 (no weakness) to 5 (death)) it was “(2.5) (2×) and 3 and (3.5) and (3) and 3.5”. In addition, the “AChE-R mRNA levels in mandibular lymph nodes” value in data set [3] is recorded as “inconsistent in depressing AChE-R mRNA levels”. In data set [4], the “Expression of AChE-S synaptic variant in mandibular lymph nodes” value is given as “did not affect the expression”. The “Post-mortem finding at injection site” value in data set [5] (i.v. 0.50 μg/g/day, 7 days) was “some irritation of the perivascular tissue at the site of intravenous injection”. For the same substance, the “Animals with slight healing erosions in the body of the stomach post-mortem” value in data set [5] (in each group, possibly associated with treatment) is 1 of 2. In data set [5] (o.g. 0.15 or 0.50 μg/g/day, i.v. 0.50 μg/g/day, 7 days), the “Clinical investigations for toxicity” value is “no toxicological effects”.
